Assay [1] addresses T1, Progesterone receptor (Homo sapiens) (UniProt P06401).
T1 sequence (whole entry): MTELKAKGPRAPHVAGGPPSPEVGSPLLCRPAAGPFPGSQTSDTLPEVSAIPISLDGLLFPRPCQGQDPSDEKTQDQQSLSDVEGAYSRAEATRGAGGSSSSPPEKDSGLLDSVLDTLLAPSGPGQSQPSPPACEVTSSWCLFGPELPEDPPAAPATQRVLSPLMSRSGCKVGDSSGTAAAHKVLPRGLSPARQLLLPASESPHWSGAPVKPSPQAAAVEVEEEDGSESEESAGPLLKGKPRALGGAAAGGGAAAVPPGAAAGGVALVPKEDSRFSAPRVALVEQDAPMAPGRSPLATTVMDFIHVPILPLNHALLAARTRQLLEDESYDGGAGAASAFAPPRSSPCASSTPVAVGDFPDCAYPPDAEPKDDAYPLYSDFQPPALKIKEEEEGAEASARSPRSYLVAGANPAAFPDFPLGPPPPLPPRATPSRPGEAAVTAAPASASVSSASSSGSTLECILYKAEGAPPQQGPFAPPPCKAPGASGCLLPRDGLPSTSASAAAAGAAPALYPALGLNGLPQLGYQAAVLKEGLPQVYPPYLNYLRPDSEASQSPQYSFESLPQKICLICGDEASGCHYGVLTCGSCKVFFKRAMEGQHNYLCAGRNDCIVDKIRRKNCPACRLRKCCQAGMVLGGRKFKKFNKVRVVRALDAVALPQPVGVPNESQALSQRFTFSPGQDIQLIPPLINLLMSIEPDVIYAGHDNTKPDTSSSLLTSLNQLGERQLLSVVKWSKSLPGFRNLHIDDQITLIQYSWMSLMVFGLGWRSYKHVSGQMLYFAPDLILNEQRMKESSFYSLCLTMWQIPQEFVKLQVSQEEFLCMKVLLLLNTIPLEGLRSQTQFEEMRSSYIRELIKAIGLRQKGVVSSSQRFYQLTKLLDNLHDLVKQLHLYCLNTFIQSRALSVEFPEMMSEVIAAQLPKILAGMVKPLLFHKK
The assay can be described thus: Relative binding affinity for human progesterone receptor in MCF-7 cell cytosols compared to Org 2058. The format is cell-based.

The nature of assay [2]: Ratio of compound to that of glucocorticoid receptor binding and progesterone receptor binding was determined.

With `CN(C)c1ccc(C#C[C@]2(O)CCC3C4CCC5=CC(=O)CCC5=C4[C@@H](c4ccc(N(C)C)cc4)C[C@@]32C)cc1` (some centres undefined), the Affinity in assay [1] stood at 1.7%. Moreover, the Ratio in assay [2] was found to be 49.

On to `C[C@]12C[C@H](c3ccc4c(c3)OCO4)C3=C4CCC(=O)C=C4CCC3C1CC[C@@]2(O)C#Cc1ccc(S(C)(=O)=O)cc1` (some centres undefined), for which the Affinity in assay [1] was 0.4%. In assay [2], the Ratio was 488.

Regarding `CC#C[C@]1(O)CC[C@H]2[C@@H]3CCC4=CC(=O)CCC4=C3[C@@H](c3ccc(N(C)C)cc3)C[C@@]21C`, in assay [1], the Affinity was 36%. Moreover, in assay [2], the Ratio was determined as 5.4.

In the case of `CN(C)c1ccc([C@H]2C[C@@]3(C)C(CC[C@@]3(O)C#Cc3ccccc3)C3CCC4=CC(=O)CCC4=C32)cc1` (some centres undefined), the Affinity in assay [1] was 16%. Moreover, the Ratio in assay [2] was 6.

In assay [1], `C[C@]12C[C@H](c3ccc4c(c3)OCCO4)C3=C4CCC(=O)C=C4CCC3C1CC[C@@]2(O)C#Cc1ccc(N2CCCC2=O)cc1` (some centres undefined) registered an Affinity of 0.2%. The Ratio in assay [2] came to 490.

`CN(C)c1ccc(/C=C/[C@]2(O)CCC3C4CCC5=CC(=O)CCC5=C4[C@@H](c4ccc(N(C)C)cc4)C[C@@]32C)cc1` (some centres undefined) had an Affinity in assay [1] of 6.1%. In addition, the Ratio in assay [2] stood at 1.

Turning to `CN(C)c1ccc([C@H]2C[C@@]3(C)C(CC[C@@]3(O)C#Cc3ccc(S(C)(=O)=O)cc3)C3CCC4=CC(=O)CCC4=C32)cc1` (some centres undefined), the Affinity in assay [1] was 2%. Further, in assay [2], the Ratio worked out at 44.

(Values after ChEMBL document CHEMBL1130518, “11,21-Bisphenyl-19-norpregnane derivatives are selective antiglucocorticoids” (Bioorg Med Chem Lett, 1997).)
